Source: patent US20080089927A1, “Methods for Coacervation Induced Liposomal Encapsulation and Formulations Thereof” (priority 2006, published 2008)
Read-outs that look alike come from different tables or passages of the source.

Legend:
[1] = Ternary phase diagram amikacin sulfate-water-ethanol; assay type: physicochemical; details: 3 parts amikacin sulfate 70 mg/mL in water mixed with 2 parts ethanol
Description: FIG. 3 depicts a ternary phase diagram of amikacin sulfate—water—ethanol system.
FIG. 3 depicts a ternary phase diagram for an amikacin sulfate—water—ethanol system. The two-phase area under the binodial curve is a zone where the system separates into two phases, a coacervate phase and an equilibrium phase. The area above the binodial curve is a zone where single liquid phase system of amikacin sulfate dissolved in water-ethanol mixture exists. When 3 parts of amikacin sulfate solution in water at 70 mg/mL (point 1) is mixed with 2 parts of ethanol, the resulting mixture has composition (point 2), which spontaneously separates into two phases: coacervate phase rich in amikacin (point C) and equilibrium phase pour in amikacin (point E). Coacervate phase comprises only about 4.5% of total volume and originally forms as small droplets suspended in equilibrium phase. If lipids are present in surrounding solution when coacervates are just formed, they can spontaneously form bilayers around those droplets. During manufacturing it is often desired to limit exposure of the product to high ethanol concentration. For examples, another 3 parts of saline or buffer can be added consequently to the mixture, which shifts composition to the single-phase zone (point 3). […]

[2] = Miscibility of amikacin sulfate with ethanol/water; assay type: physicochemical; details: ethanol/water mixture, aqueous with cosolvent or surfactant or cyclodextrin
Description: Right after the infusion step at flow rates 300/500, ethanol concentration in the mixture reaches 34%.
One possible solution to this problem is to add more water to the vessel with the lipid/amikacin mixture, thus reducing both ethanol and amikacin concentration.

SMILES	coacervate phase, share of total volume [1]	solubility ([2]; 27% ethanol, depending on temperature, read-out: amikacin soluble concentration) [mg/mL]	solubility ([2]; 34% ethanol, read-out: solubility limit) [mg/mL]
NCC[C@H](O)C(=O)N[C@@H]1C[C@H](N)[C@@H](O[C@H]2O[C@H](CN)[C@@H](O)[C@H](O)[C@H]2O)[C@H](O)[C@H]1O[C@H]1O[C@H](CO)[C@@H](O)[C@H](N)[C@H]1O.O=S(=O)(O)O.O=S(=O)(O)O [amikacin sulfate]	about 4.5%	–	–
NCC[C@H](O)C(=O)N[C@@H]1C[C@H](N)[C@@H](O[C@H]2O[C@H](CN)[C@@H](O)[C@H](O)[C@H]2O)[C@H](O)[C@H]1O[C@H]1O[C@H](CO)[C@@H](O)[C@H](N)[C@H]1O [amikacin]	–	≥ 15	< 15
